Experimental data: ChEMBL document CHEMBL1201862, “PubChem BioAssay data set” (2004)
Activity calls are given as the source filed them. For most assays here, no stated cut-off is given here; in the data, actives have a measured EC50 and inactives only a lower limit.

system: not listed separately; experiment: inhibitors of intracellular T. cruzi replication, confirmation, NIH3T3 host cells, beta-gal luminescence (AID 2044); format: functional, cell-based;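 further: intracellular parasites grown in NIH/3T3 mouse fibroblasts as host cells; luminescent beta-galactosidase reporter signal from transgenic T. cruzi replicating inside host cells; inhibitors lower the luminescence signal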

SMILES | EC50
COc1ccccc1CNc1ccc2c(c1)CCC2 | 2.21 µM (active)
CCCCCCCNC(=O)C1(CC2CC(c3cccc(Br)c3)=NO2)CCN(C(=O)c2ccccc2)CC1 (stereo not drawn) | 2.62 µM (active)
CN1c2ccc([N+](=O)[O-])cc2CC2(C(=O)NC(=O)N(c3ccccc3)C2=O)C1c1ccccc1 (stereo not drawn) | 1.94 µM (active)
Cc1ccc(CSCC(=O)N2CCN(c3ccc(F)cc3)CC2)cc1 | 2.18 µM (active)
CN(C)c1ccc(C2SCCN2C(=O)c2ccc([N+](=O)[O-])cc2)cc1 (stereo not drawn) | 0.874 µM (active)
CCn1cc([N+](=O)[O-])c(C(=O)N2N=C(c3ccc4ccccc4c3)CC2c2cc(Br)ccc2O)n1 (stereo not drawn) | 2.19 µM (active)
CC(C)c1csc(CN2CCC(CO)(Cc3ccccc3)CC2)n1 | 0.891 µM (active)
CC1CCC(C(C)C)C(OC(=O)C[n+]2cc(-c3ccc(Cl)cc3)n3c2CCC3)C1 (stereo not drawn) | 0.144 µM (active)
Cc1sc(NC(=O)Cc2ccc3c(c2)OCO3)nc1-c1ccc2c(c1)CCN2C(=O)c1ccccc1F | 1.69 µM (active)
Cc1ccc(Sc2ccc(CN3CCCC3)cc2[N+](=O)[O-])cc1 | 0.206 µM (active)
Cc1ccc(/C(=N\O)c2oc3c(C)c4oc(=O)cc(C)c4cc3c2C)cc1 | 1.23 µM (active)
COC(=O)c1sc(N/N=C/c2ccc(C(C)C)cc2)nc1C | 2.06 µM (active)
CCOc1ccc(-n2c(C)cc(/C=N/N(C)C)c2C)cc1 | 0.843 µM (active)

target: T1, Streptokinase A (Streptococcus pyogenes serotype M1, UniProt P10520); experiment: S. pyogenes streptokinase expression inhibitors, potency, dose response, plasminogen activation absorbance, OD405 (AID 1914); format: functional, Streptococcus pyogenes M1 GAS;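 further: secreted streptokinase activity via plasminogen activation per viability signal from cell pellet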
T1 sequence (P10520 whole entry): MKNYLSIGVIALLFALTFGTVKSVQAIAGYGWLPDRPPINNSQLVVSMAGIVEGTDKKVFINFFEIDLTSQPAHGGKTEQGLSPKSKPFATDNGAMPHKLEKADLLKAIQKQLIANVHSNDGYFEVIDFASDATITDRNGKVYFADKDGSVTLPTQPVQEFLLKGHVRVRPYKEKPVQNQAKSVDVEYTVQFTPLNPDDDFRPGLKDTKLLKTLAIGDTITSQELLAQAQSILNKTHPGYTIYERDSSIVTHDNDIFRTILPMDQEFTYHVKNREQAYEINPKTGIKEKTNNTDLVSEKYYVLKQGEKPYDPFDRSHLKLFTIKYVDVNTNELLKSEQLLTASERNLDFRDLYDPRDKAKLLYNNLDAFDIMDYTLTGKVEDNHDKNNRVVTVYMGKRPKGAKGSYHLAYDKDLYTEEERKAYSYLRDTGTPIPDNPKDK

SMILES | EC50
COc1ccc(C(=O)NC(=S)Nc2ccc(N3CCOCC3)c(Cl)c2)cc1[N+](=O)[O-] | > 150 µM (not active)
COc1ccc(-c2nc(NC(C)=O)sc2-c2ccc(OC)cc2)cc1 | 3.44 µM (active)
CCCCCCOC(=O)/C=C/c1c(C)nc(O)nc1O | > 150 µM (not active)
COc1cc(C)ccc1OCCCOc1ccccc1Br | > 150 µM (not active)
COc1cc(F)ccc1CN1CCC(n2nccc2NC(=O)C2CCOC2)CC1 (stereo not drawn) | > 150 µM (not active)
CCCCNC(=O)c1ccc(NC(C)=O)c(Cl)c1 | > 150 µM (not active)
COc1ccccc1N1CC(C(=O)Nc2nnc(SCC(=O)NCC3CCCO3)s2)CC1=O (stereo not drawn) | > 150 µM (not active)
O=C1C=C(NC(=O)Nc2ccc(Cl)c(Cl)c2)CCC1 | > 150 µM (not active)
CCOC(=O)c1sc2ncnc(N3CCN(c4ccc(OC)cc4)CC3)c2c1C | > 150 µM (not active)
CCc1ccc(-c2cc(C)no2)cc1S(=O)(=O)Nc1cccc(CN2CCCC2)c1 | > 150 µM (not active)
C/C(=N\NC(=O)COc1ccc(C)cc1C(C)C)c1cc2ccccc2o1 | 30.5 µM (active)

target: Cytochrome P450 2D6 (Homo sapiens, UniProt P10635);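 further: CYP2D6 member of a cytochrome P450 panel assay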
Sequence (P10635 whole entry): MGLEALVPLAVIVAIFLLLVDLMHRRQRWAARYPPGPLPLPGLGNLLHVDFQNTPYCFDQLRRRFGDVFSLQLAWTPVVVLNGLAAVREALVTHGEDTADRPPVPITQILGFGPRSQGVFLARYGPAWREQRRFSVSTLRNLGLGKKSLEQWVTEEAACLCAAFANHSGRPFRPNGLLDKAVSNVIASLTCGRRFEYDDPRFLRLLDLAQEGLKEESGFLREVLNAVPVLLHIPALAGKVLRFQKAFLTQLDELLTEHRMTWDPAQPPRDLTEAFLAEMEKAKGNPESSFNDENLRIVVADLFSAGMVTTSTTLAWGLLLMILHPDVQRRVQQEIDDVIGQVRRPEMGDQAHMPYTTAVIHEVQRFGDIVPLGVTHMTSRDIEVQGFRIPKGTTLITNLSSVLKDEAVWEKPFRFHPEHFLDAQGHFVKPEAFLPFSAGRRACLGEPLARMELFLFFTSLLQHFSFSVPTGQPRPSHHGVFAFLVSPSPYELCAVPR

SMILES | AC50
COc1ccc(C(=O)N2CCC3(CCN(Cc4ccccc4OC)CC3)CC2)cc1 | 12.6 µM (inconclusive)
Oc1ccnc2cccc(Cc3ccccc3)c12 | 0.00708 µM (inconclusive)
CC(C)CN1CCC2(CC1)CCN(C(=O)Oc1ccccc1)CC2 | 20 µM (inconclusive)
O=C(Nc1cccc(F)c1)N1CC2(CCNCC2)C1 | 7.94 µM (inconclusive)
CNc1cc(-c2ccccc2C)ncn1 | 39.8 µM (inconclusive)
COc1cc(C=O)ccc1OCCOCCOc1ccccc1Cl | 20 µM (inconclusive)
O=C(CC(=O)c1ccncc1)c1ccccc1 | 1.58 µM (inconclusive)
CN(C)c1ncc2nc(-c3ccccc3)c(=O)n(C[C@H]3CCCO3)c2n1 | 12.6 µM (inconclusive)
COc1ccc2cc3cc(C(=O)NCCN4CCN(c5ccccc5F)CC4)oc3nc2c1 | 31.6 µM (inconclusive)
O=c1c([N+](=O)[O-])cc(C(F)(F)F)cn1Cc1c(Cl)cccc1Cl | 25.1 µM (inconclusive)
COc1ccc([C@@H](Nc2ncccn2)c2cc3c(cc2O)OCO3)cc1 | 6.31 µM (inconclusive)
O=C(CCCCn1c(=O)c2ccccc2n(CC(=O)NC2CCCC2)c1=O)NC1CCCC1 | 14.1 µM (inconclusive)
O=C1C(O)=C(C(C2=C(O)C(=O)c3ccccc3C2=O)c2ccc(Cl)cc2)C(=O)c2ccccc21 | 2.51 µM (inconclusive)
C/C(=N/NS(=O)(=O)c1ccc(C)cc1)c1cccc(NC(=O)c2cccc(Cl)c2)c1 | 4.47 µM (inconclusive)
O=S(=O)(N/N=C\C=C\c1ccccc1)c1ccc(Br)cc1 | 22.4 µM (inconclusive)

system: Streptococcus; experiment: Group A Streptococcus viability loss, dose response, counter-screen for streptokinase expression inhibitor project, luminescence, BacTiterGlo (AID 1915); format: functional, organism-based;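 further: potency for reduction of bacterial viability or growth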

SMILES | EC50
CCCOc1ccc(C(=O)NC(=S)N2CCN(c3cc4c(cc3F)c(=O)c(C(=O)O)cn4CC)CC2)cc1 | 6.47 µM (active)
COc1ccc(C(=O)NC(=S)Nc2ccc(N3CCOCC3)c(Cl)c2)cc1[N+](=O)[O-] | 19.3 µM (active)
COc1ccc(-c2nc(NC(C)=O)sc2-c2ccc(OC)cc2)cc1 | 14.6 µM (active)
CCCCCCOC(=O)/C=C/c1c(C)nc(O)nc1O | 4.6 µM (active)
COc1cc(C)ccc1OCCCOc1ccccc1Br | > 150 µM (not active)
COC(=O)c1cc(-c2ccc(Br)cc2)c2c(=O)[nH]c(=O)n(C)c2n1 | 5.63 µM (active)
COc1cc(F)ccc1CN1CCC(n2nccc2NC(=O)C2CCOC2)CC1 (stereo not drawn) | > 150 µM (not active)
CCCCNC(=O)c1ccc(NC(C)=O)c(Cl)c1 | > 150 µM (not active)
COc1ccccc1N1CC(C(=O)Nc2nnc(SCC(=O)NCC3CCCO3)s2)CC1=O (stereo not drawn) | > 150 µM (not active)
O=C1C=C(NC(=O)Nc2ccc(Cl)c(Cl)c2)CCC1 | > 150 µM (not active)
CCOC(=O)c1sc2ncnc(N3CCN(c4ccc(OC)cc4)CC3)c2c1C | > 150 µM (not active)
CCc1ccc(-c2cc(C)no2)cc1S(=O)(=O)Nc1cccc(CN2CCCC2)c1 | > 150 µM (not active)
C/C(=N\NC(=O)COc1ccc(C)cc1C(C)C)c1cc2ccccc2o1 | 24.1 µM (active)

system: not listed separately; experiment: cytotoxicity toward NIH3T3 fibroblasts, dose response, counter-screen, cell-based, ATP luminescence, mouse fibroblasts (AID 2010); format: functional;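 further: cells exposed to compound for about 90 hours before reading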

SMILES | EC50
COc1ccccc1CNc1ccc2c(c1)CCC2 | > 60 µM (not active)
CCCCCCCNC(=O)C1(CC2CC(c3cccc(Br)c3)=NO2)CCN(C(=O)c2ccccc2)CC1 (stereo not drawn) | > 60 µM (not active)
CN1c2ccc([N+](=O)[O-])cc2CC2(C(=O)NC(=O)N(c3ccccc3)C2=O)C1c1ccccc1 (stereo not drawn) | > 60 µM (not active)
Cc1ccc(CSCC(=O)N2CCN(c3ccc(F)cc3)CC2)cc1 | > 60 µM (not active)
CN(C)c1ccc(C2SCCN2C(=O)c2ccc([N+](=O)[O-])cc2)cc1 (stereo not drawn) | > 30 µM (not active)
CCn1cc([N+](=O)[O-])c(C(=O)N2N=C(c3ccc4ccccc4c3)CC2c2cc(Br)ccc2O)n1 (stereo not drawn) | > 60 µM (inconclusive)
CC(C)c1csc(CN2CCC(CO)(Cc3ccccc3)CC2)n1 | > 60 µM (not active)
CC1CCC(C(C)C)C(OC(=O)C[n+]2cc(-c3ccc(Cl)cc3)n3c2CCC3)C1 (stereo not drawn) | > 60 µM (not active)
Cc1sc(NC(=O)Cc2ccc3c(c2)OCO3)nc1-c1ccc2c(c1)CCN2C(=O)c1ccccc1F | > 60 µM (not active)
Cc1ccc(Sc2ccc(CN3CCCC3)cc2[N+](=O)[O-])cc1 | > 60 µM (not active)
Cc1ccc(/C(=N\O)c2oc3c(C)c4oc(=O)cc(C)c4cc3c2C)cc1 | > 60 µM (not active)
COC(=O)c1sc(N/N=C/c2ccc(C(C)C)cc2)nc1C | > 60 µM (not active)
CCOc1ccc(-n2c(C)cc(/C=N/N(C)C)c2C)cc1 | > 30 µM (not active)

target: Cytochrome P450 2C9 (Homo sapiens, UniProt P11712)
Sequence (P11712 whole entry): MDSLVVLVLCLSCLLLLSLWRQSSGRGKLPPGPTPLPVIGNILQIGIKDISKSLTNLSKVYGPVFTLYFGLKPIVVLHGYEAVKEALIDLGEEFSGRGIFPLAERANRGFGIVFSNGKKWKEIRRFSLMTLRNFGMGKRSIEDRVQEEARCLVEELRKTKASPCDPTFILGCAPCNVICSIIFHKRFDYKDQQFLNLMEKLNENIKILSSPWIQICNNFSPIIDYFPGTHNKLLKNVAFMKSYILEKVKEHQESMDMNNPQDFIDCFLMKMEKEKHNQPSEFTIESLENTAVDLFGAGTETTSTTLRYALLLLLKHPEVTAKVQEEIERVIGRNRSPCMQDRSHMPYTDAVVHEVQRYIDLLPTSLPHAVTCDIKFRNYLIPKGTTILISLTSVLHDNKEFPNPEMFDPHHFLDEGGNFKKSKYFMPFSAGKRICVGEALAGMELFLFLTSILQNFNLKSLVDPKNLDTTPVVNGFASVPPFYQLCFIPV

SMILES | AC50
O=c1cnc2cnc(N3CCOCC3)nc2n1Cc1ccc(F)cc1 | 25.1 µM (inconclusive)
Oc1ccnc2cccc(Cc3ccccc3)c12 | 15.8 µM (inconclusive)
COc1ccc(C(=O)/C=C2/c3ccccc3CC(C)(C)N2C)cc1 | 20 µM (inconclusive)
NC(=O)C1(NC(=O)[C@@H]2CC3(CC(c4cccc(NC(=O)c5cc([N+](=O)[O-])cc([N+](=O)[O-])c5)c4)=NO3)CN2C(=O)c2ccccc2)CC1 (stereo partly drawn) | 11.2 µM (inconclusive)
COc1cc(C)ccc1OCCCOc1ccccc1Br | 39.8 µM (inconclusive)
O=C(CC(=O)c1ccncc1)c1ccccc1 | 2 µM (inconclusive)
CN(C)c1ncc2nc(-c3ccccc3)c(=O)n(C[C@H]3CCCO3)c2n1 | 20 µM (inconclusive)
COc1ccc2cc3cc(C(=O)NCCN4CCN(c5ccccc5F)CC4)oc3nc2c1 | 22.4 µM (inconclusive)
COc1cnc(-c2ccccc2)nc1Oc1cccc(C)c1 | 39.8 µM (inconclusive)
Cc1cccc(C)c1NC(=O)C(NC=O)c1ccccc1Cl (stereo not drawn) | 12.6 µM (inconclusive)
COc1cccc(Nc2ncc3ncc(=O)n(C4CC4)c3n2)c1 | 15.8 µM (inconclusive)
COc1ncc2nc(C)c(=O)n(CCc3ccccc3)c2n1 | 20 µM (inconclusive)
O=c1c([N+](=O)[O-])cc(C(F)(F)F)cn1Cc1c(Cl)cccc1Cl | 22.4 µM (inconclusive)
Cc1ccc2ncc([N+](=O)[O-])n2c1 | 0.708 µM (inconclusive)
O=C1C(O)=C(C(C2=C(O)C(=O)c3ccccc3C2=O)c2ccc(Cl)cc2)C(=O)c2ccccc21 | 3.16 µM (inconclusive)

target: Cytochrome P450 3A4 (Homo sapiens, UniProt P08684);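 further: CYP3A4 tested as one member of a cytochrome P450 panel screen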
Sequence (P08684 whole entry): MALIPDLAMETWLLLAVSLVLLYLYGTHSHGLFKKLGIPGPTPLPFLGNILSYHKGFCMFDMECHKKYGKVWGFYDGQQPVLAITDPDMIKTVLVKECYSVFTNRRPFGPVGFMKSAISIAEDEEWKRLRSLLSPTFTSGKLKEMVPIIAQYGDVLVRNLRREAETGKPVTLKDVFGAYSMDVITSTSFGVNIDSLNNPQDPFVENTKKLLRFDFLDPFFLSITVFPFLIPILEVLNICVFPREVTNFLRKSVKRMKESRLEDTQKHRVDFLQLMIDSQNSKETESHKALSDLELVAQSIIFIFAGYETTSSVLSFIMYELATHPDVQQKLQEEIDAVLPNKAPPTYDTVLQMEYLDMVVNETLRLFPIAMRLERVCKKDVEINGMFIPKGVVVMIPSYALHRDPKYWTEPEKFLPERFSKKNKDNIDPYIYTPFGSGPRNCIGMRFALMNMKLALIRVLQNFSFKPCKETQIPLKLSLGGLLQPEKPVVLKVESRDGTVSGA

SMILES | AC50
COc1cc(OC)nc(Oc2ccccc2C(=O)Oc2cccc(C)c2)n1 | 17.8 µM (inconclusive)
O=c1cnc2cnc(N3CCOCC3)nc2n1Cc1ccc(F)cc1 | 12.6 µM (inconclusive)
Oc1ccnc2cccc(Cc3ccccc3)c12 | 28.2 µM (inconclusive)
Cc1ccc(S(=O)(=O)NCc2ccccc2)cc1 | 31.6 µM (inconclusive)
CCOC(=O)n1c(=O)n(Cc2c(Cl)cccc2Cl)c2ccccc21 | 15.8 µM (inconclusive)
COc1ccc(-n2c(S)nnc2-c2cnccn2)cc1 | 14.1 µM (inconclusive)
CS(=O)(=O)N1CCC2(CC1)CN(C(=O)Nc1cccc(C#N)c1)C2 | 0.0251 µM (inconclusive)
Cc1ccc(S(=O)(=O)N[C@H]2COC(=O)[C@@H](C)COC(=O)[C@H](C)NC(=O)C/C=C\[C@H]2C)cc1 | 3.98 µM (inconclusive)
CN(C)c1ncc2nc(-c3ccccc3)c(=O)n(C[C@H]3CCCO3)c2n1 | 12.6 µM (inconclusive)
c1ccc(N2CC[C@@]3(CCCNC3)C2)nc1 | 15.8 µM (inconclusive)
COc1cccc(Nc2ncc3ncc(=O)n(C4CC4)c3n2)c1 | 6.31 µM (inconclusive)
COc1ncc2nc(C)c(=O)n(CCc3ccccc3)c2n1 | 15.8 µM (inconclusive)
COc1ccccc1CN1CCC2(CC1)CCN(C(=O)c1csnn1)CC2 | 31.6 µM (inconclusive)
O=C(c1ccco1)N1CCC[C@@]2(CCN(Cc3ccncc3)C2)C1 | 15.8 µM (inconclusive)
O=C1C(O)=C(C(C2=C(O)C(=O)c3ccccc3C2=O)c2ccc(Cl)cc2)C(=O)c2ccccc21 | 3.16 µM (inconclusive)

system: Streptococcus sp. 'group A'; experiment: growth inhibition of control SK(-) GAS strain, dose response, counter-screen for streptokinase expression inhibitor project, luminescence, kanamycin, BacTiterGlo, confirmation (AID 1900); format: functional, organism-based

SMILES | EC50
CCCOc1ccc(C(=O)NC(=S)N2CCN(c3cc4c(cc3F)c(=O)c(C(=O)O)cn4CC)CC2)cc1 | 4.62 µM (active)
COc1ccc(C(=O)NC(=S)Nc2ccc(N3CCOCC3)c(Cl)c2)cc1[N+](=O)[O-] | 1.73 µM (active)
COc1ccc(-c2nc(NC(C)=O)sc2-c2ccc(OC)cc2)cc1 | 6.7 µM (active)
CCCCCCOC(=O)/C=C/c1c(C)nc(O)nc1O | 0.604 µM (active)
COc1cc(C)ccc1OCCCOc1ccccc1Br | > 150 µM (not active)
COC(=O)c1cc(-c2ccc(Br)cc2)c2c(=O)[nH]c(=O)n(C)c2n1 | 2.45 µM (active)
COc1cc(F)ccc1CN1CCC(n2nccc2NC(=O)C2CCOC2)CC1 (stereo not drawn) | > 150 µM (not active)
CCCCNC(=O)c1ccc(NC(C)=O)c(Cl)c1 | > 150 µM (not active)
COc1ccccc1N1CC(C(=O)Nc2nnc(SCC(=O)NCC3CCCO3)s2)CC1=O (stereo not drawn) | > 150 µM (not active)
O=C1C=C(NC(=O)Nc2ccc(Cl)c(Cl)c2)CCC1 | 18 µM (active)
CCOC(=O)c1sc2ncnc(N3CCN(c4ccc(OC)cc4)CC3)c2c1C | 7.62 µM (active)
CCc1ccc(-c2cc(C)no2)cc1S(=O)(=O)Nc1cccc(CN2CCCC2)c1 | > 150 µM (not active)
C/C(=N\NC(=O)COc1ccc(C)cc1C(C)C)c1cc2ccccc2o1 | 15.5 µM (active)
